The test system of one assay is HuH7 cells. Description: Test of inducing cell-death in vitro (Calcein-AM/PI dead cell rate). It is filed as cell-based, human. The text has this:
(§1) Human fibrosarcoma-derived HT-1080 cells (HT-1080 cells, JCRB cell bank) were used as cancer cells in the test for monitoring changes in mitochondrial membrane potential. HT-1080 cells, human osteosarcoma cell line Hos cells (Hos cells, JCRB cell bank), human histiocytic lymphoma/macrophage U937 cells (U937 cells, JCRB cell bank), human myeloid leukemia HL-60 cells (HL-60 cells, JCRB cell bank), acute monocytic leukemia THP-1 cells (THP-1 cells, JCRB cell bank), human alveolar basal epithelial adenocarcinoma cell A549 cells (A549 cells, Cell Resource Center for Biomedical Research, Institute of Development, Aging and Cancer, Tohoku University), human pancreatic carcinoma cells (MIA Paca 2 cells, Cell Resource Center for Biomedical Research, Institute of Development, Aging and Cancer, Tohoku University) and well differentiated human liver carcinoma-derived cell line HuH7 cells (HuH7 cells, Cell Resource Center for Biomedical Research, Institute of Development, Aging and Cancer, Tohoku University) were used as cancer cells in an in vitro cell-death induction test of cancer cells and a nuclear transport test of Example 2. Normal human gingival fibroblast cells Gin-1 (Gin-1 cells, DS Pharma Biomedical) were used as a control. The above-described cells were each inoculated into a 96-well culture plate (Falcon) at 5,000 cells/[…] and subjected to the following tests.
(§2) The peptide of SEQ ID NO: 1 labeled with FITC (Example 2) was used for the test of inducing cell-death in vitro in cancer cells. It was prepared the test example to which 100 μL of Example 2 and further 10% FBS were added and cultured for 9 days under conditions of 200 μL of serum-supplemented medium (Alpha modification of Eagle's MEM (α-MEM) (Thermo Fisher Scientific)+10% FBS). Furthermore, it was also produced the test example that was cultured for 21 days with the whole amount of Example 2-supplemented medium replaced every 7 days. As a control, the cells were cultured in a serum-supplemented medium (α-MEM+10% FBS) without addition and were used. A supernatant was removed after the completion of the culture. The cells were washed once with PBS and stained in PBS to which a fluorescent dye for living cell staining Calcein-AM (DOJINDO LABORATORIES) (final concentration: 0.1 μg/mL) and a fluorescent dye for dead cell staining Propidium Iodide (PI) (DOJINDO LABORATORIES) (final concentration: 0.3 μg/mL) were added, at 37° C. in a 5% CO2 cell incubator for 30 minutes. The living cells and dead cells were separately stained with Calcein-AM and PI, respectively and imaged with the confocal laser scanning microscope LSM800. Next, the dead cell rate relative to the number of total cells was analyzed using ImageJ.
(§3) The amount of administration of Example 2 was adjusted to 50 μg/mL and was used for 9-, 16- or 23-day administration test in the A549, MIA Paca2 or HuH7 cells by the same method as in Test Example 2A above. The cell staining and subsequent analyses of the dead cell rate relative to the number of total cells were performed in the same manner as Test Example 2A above.

For another assay, the system named is A549 cells. The assay is described as above. Format: cell-based, human. Conditions: for dead cell rate: 50 μg/mL.
Excerpt: as §1, §2, §3

In a further assay the test system is MIA Paca2 cells. The description is as above. Format: cell-based, human. Conditions: for dead cell rate: 50 μg/mL.
Excerpt: as §1, §2, §3

The subject of another assay is HT-1080 cells tumor. The assay can be described thus: Growth-inhibition and apoptosis of cancer cells in tumor-bearing mice. Format: in vivo, BALB/c nude mouse. The note with it: 10 mg/kg intraperitoneally every 3 days. The protocol: HT-1080 cells (1×10^7 cells/200 μL) were subcutaneously implanted into the back of 5 week-old BALB/c nude mouse (CHARLES RIVER LABORATORIES JAPAN, INC.). A tumor after the implantation was confirmed to reach 30 to 60 mm^3, and then they were subjected to the following tests.
Example 2 was dissolved in the sterile water and adjusted to be 200 μg/200 μL by the addition of 2-time concentrated α-MEM (not containing glutamine or an antibiotic). It was intraperitoneally administered to tumor-bearing mice at 10 mg/kg every 3 days. In the control administration group, 200 μL of 1-time concentrated α-MEM was intraperitoneally administered to tumor-bearing mice every 3 days. The mice were weighed on DRETEC weighing scale (DRETEC CO., Ltd., Japan) and the tumor size (estimation volume (shortest diameter×longer diameter×height×pi/6 mm^3)) was measured with a vernier caliper (maximum: 150 mm, minimum: 0.05 mm) (MITUTOYO, Japan) every 3 days.
FIG. 6 is a graph illustrating the transitions of tumor size in the Example 2 and control administration group (N=6). The vertical axis represents the average value of tumor size±standard deviation (SD), and the horizontal axis represents the days after administration. […] In the control administration group, the tumor size on day 24 was more than 1,500 mm^3. On the other hand, the effect of suppressing tumor growth was confirmed as the tumor size was about 600 mm^3 in the Example 2 administration.

Assay [1] deals with cytoplasm and nuclear protein of HT-1080 cells. Description: Analytical test of cytoplasm and nuclear protein bound by Example 2 (immunoprecipitation, shotgun analysis). Conditions: 50 μg/mL, 5 days. Format: binding, human. The procedure:
The HT-1080 cells (20 million cells) were cultured in 4 mL of serum-supplemented medium (α-MEM+10% FBS) to be 50 μg/mL at the final concentration of Example 2 for 5 days at 37° C. and 5% CO2 in the cell incubator. The cells were washed with PBS and collected. The protein was individually harvested from the cytoplasm and the nucleus using NE-PER Nuclear and Cytoplasmic Extraction Reagents (PIERCE). 80 μL of A/G agarose was added to 1 mg of each protein from the cytoplasm and the nucleus and stirred at 4° C. for 1 hour, the samples were pretreated. 10 μg of IgG Fraction Monoclonal Mouse Anti-Fluorescein (FITC) (Jackson ImmunoResearch) was added to the pretreated solution (1 mg/600 μL) and shaken at 4° C. overnight. Subsequently, 20 μL of A/G agarose was added to the mixtures and shaken at 4° C. for 2 hours. After the mixtures were washed three times with a wash buffer, 50 μL of elution buffer (Thermo Fisher Scientific) was added to the A/G agarose. […]
Proteins were identified from the cytoplasm or nucleus and listed with the accession number, protein name, identified number of detected peptides, identified number of unique peptides, confidence score and amount of cytoplasmic protein or nuclear protein(fmol), except for the antibodies used in immunoprecipitation and Example 2 from the detected proteins.

Non-standard residues stand in square brackets, D forms with d. No end group written: not given here. *: point of attachment. FITC = O=C1OC2(c3ccc(O)cc3Oc3cc(O)ccc32)c2ccc(NC(=S)*)cc21; Ahx = NCCCCCC(=O)O

As to “Example 2: peptide of SEQ ID NO: 1 labeled with FITC, bound via an Ahx linker at the N-terminus ({FITC}-[Ahx]KDNRGNLLQCVCTGNGRGEWKC; cysteine pairing not given here)”, the “effect of administration (dead cell rate) on day 9 compared with later days” value in the assay on HuH7 cells (50 μg/mL) was “substantially same as that of days 16 and 23”. In addition, the “increase in the dead cell rate vs control” value in the assay with HuH7 cells (50 μg/mL, 9, 16 or 23 days) is reported as “significant difference was recognized at the level of 1%”; in the assay with A549 cells (50 μg/mL, 9, 16 or 23 days), “significant difference was recognized at the level of 1%”; in the assay on MIA Paca2 cells (50 μg/mL, 9, 16 or 23 days) it was “significant difference was recognized at the level of 1%”. The dead cell rate in the assay with A549 cells (day 9) is recorded as around 50%; in the assay on A549 cells (day 16), around 60%; with A549 cells (day 21) it was at least 80%; in the assay with MIA Paca2 cells (day 9), “about 10%”; in the assay on MIA Paca2 cells (day 16) it was around 50%; in the assay on MIA Paca2 cells (day 23), “about 80%”. The “growth inhibition of the tumor compared with the control administration group” value in the assay on HT-1080 cells tumor (between days 12 and 24) was “significant difference at a level of 1%”. Further, the tumor size entry in the assay on HT-1080 cells tumor (day 24, N=6) is “about 600 mm^3”. Further, the tumor shrinkage entry in the assay with HT-1080 cells tumor (to the 33th day) was “tendency to shrink the tumor was confirmed”. The “nuclear transfer proved biochemically” value in assay [1] is given as “transfer to the inside of the nucleus”. The “proteins bound (identified from cytoplasm or nucleus)” value in assay [1] was “linker histones H1-3, core histones (H2A, H2B, H3-2 and H4), 22 types of 40S ribosomal proteins and 28 types of 60S ribosomal proteins”.

The values above are taken from US12472226B2, “Cell-permeable peptide” (priority 2019, dated 2025).
